{"source": "paper PMC7659979", "about": "“Discovery and Evaluation of Enantiopure 9H-pyrimido[4,5-b]indoles as Nanomolar GSK-3β Inhibitors with Improved Metabolic Stability” (International Journal of Molecular Sciences, 2020)", "test_system": "SH-SY5Y cells", "assay": "Neuroprotective activity toward OAβ1-42 (MTT assay)", "format": "cell-based, human", "settings": "5 μM, concomitant treatment with OAβ1−42 10 μM", "procedure": "Next, we investigated the neuroprotective effects of (R)-28 in SH-SY5Y cells against the neurotoxicity induced by neurotoxins. These included hydrogen peroxide (H2O2, 100 μM) and amyloid-β 1–42 oligomers (OAβ1−42, 10 μM), that mimic general oxidative stress and Alzheimer’s disease (AD), respectively. […] Still, these neuroprotective effects against the oxidative stress underline the potential usefulness of inhibitor (R)-28 in the AD therapeutic area.\n5. Investigation of Cellular GSK-3α/β Inhibition by (R)-28 and Its Neuroprotective Effects […]\nSH-SY5Y cells were seeded in a 96-well plate at 2 × 10^4 cells/well, incubated for 24 h and then treated with various concentrations (1.25–40 µM) of (R)-28 for 24 h. Cell viability, in terms of mitochondrial activity, was evaluated by MTT assay, as previously described. […]\nSH-SY5Y cells were seeded in a 96-well plate at 2 × 10^4 cells/well, incubated for 24 h and subsequently treated with (R)-28 (5 µM) and H 2O2 (100 µM) for 1 h. […] The neuroprotective activity was measured by using the MTT assay as previously described . Data are expressed as a percentage of neurotoxicity versus untreated cells. […]\nSH-SY5Y cells were seeded in a 96-well plate at 3 × 10^4 cells/well, incubated for 24 h, and subsequently treated with (R)-28 (5 µM) and OAβ 1-42 (10 µM) for 4 h. The neuroprotective activity was measured by using the MTT assay as previously described. […]"}
{"smiles": "CCC(=O)N1CCC[C@@H](N(C)c2ncnc3[nH]c4cc(Br)ccc4c23)C1", "note": "[Compound (R)-28, (R)-1-(3-((7-bromo-9H-pyrimido[4,5-b]indol-4-yl)(methyl)amino)piperidin-1-yl)propan-1-one]", "values": [{"measurement": "neurotoxicity elicited by OAβ1−42", "result": "not"}]}
